Experimental data reported in ChEMBL document CHEMBL3046756, “Synthesis, anti-inflammatory, and structure antioxidant activity relationship of novel 4-quinazoline” (Med Chem Res, 2013).

Key:
Rattus norvegicus [1] = test: Antipyretic activity in Wistar Rattus norvegicus (rat) assessed as decrease in Brewer's yeast solution-induced hyperthermia at 50 mg/kg, po measured after 3 hr (reference value: 36.8 +/- 1.9 degC); format: functional
Rattus norvegicus [2] = test: Antipyretic activity in Wistar Rattus norvegicus (rat) assessed as decrease in Brewer's yeast solution-induced hyperthermia at 100 mg/kg, po measured after 2 hr (reference value: 37 +/- 1.7 degC); format: functional
Rattus norvegicus [3] = test: Antipyretic activity in Wistar Rattus norvegicus (rat) assessed as decrease in Brewer's yeast solution-induced hyperthermia at 150 mg/kg, po measured after 3 hr (reference value: 36.8 +/- 1.9 degC); format: functional
Rattus norvegicus [4] = test: Antipyretic activity in Wistar Rattus norvegicus (rat) assessed as decrease in Brewer's yeast solution-induced hyperthermia at 100 mg/kg, po measured after 3 hr (reference value: 36.8 +/- 1.9 degC); format: functional
Rattus norvegicus [5] = test: Anti-inflammatory activity in Wistar Rattus norvegicus (rat) assessed as inhibition of carrageenan-induced paw edema at 150 mg/kg, po administered 30 min prior to carrageenan challenge measured at 90 min relative to untreated control; format: functional
Rattus norvegicus [6] = test: Anti-inflammatory activity in Wistar Rattus norvegicus (rat) assessed as inhibition of carrageenan-induced paw edema at 150 mg/kg, po administered 30 min prior to carrageenan challenge measured at 60 min relative to untreated control; format: functional
Rattus norvegicus [7] = test: Anti-inflammatory activity in Wistar Rattus norvegicus (rat) assessed as inhibition of carrageenan-induced paw edema at 50 mg/kg, po administered 30 min prior to carrageenan challenge measured at 60 min relative to untreated control; format: functional
Rattus norvegicus [8] = test: Anti-inflammatory activity in Wistar Rattus norvegicus (rat) assessed as inhibition of carrageenan-induced paw edema at 150 mg/kg, po administered 30 min prior to carrageenan challenge measured at 30 min post carrageenan challenge relative to untreated control; format: functional
Rattus norvegicus [9] = test: Anti-inflammatory activity in Wistar Rattus norvegicus (rat) assessed as inhibition of carrageenan-induced paw edema at 50 mg/kg, po administered 30 min prior to carrageenan challenge measured at 30 min post carrageenan challenge relative to untreated control; format: functional
Rattus norvegicus [10] = test: Antipyretic activity in Wistar Rattus norvegicus (rat) assessed as decrease in Brewer's yeast solution-induced hyperthermia at 50 mg/kg, po measured after 2 hr (reference value: 37 +/- 1.7 degC); format: functional
Rattus norvegicus [11] = test: Antipyretic activity in Wistar Rattus norvegicus (rat) assessed as decrease in Brewer's yeast solution-induced hyperthermia at 150 mg/kg, po measured after 1 hr (reference value: 37 +/- 3.55 degC); format: functional
Rattus norvegicus [12] = test: Antipyretic activity in Wistar Rattus norvegicus (rat) assessed as decrease in Brewer's yeast solution-induced hyperthermia at 100 mg/kg, po measured after 1 hr (reference value: 37 +/- 3.55 degC); format: functional
Rattus norvegicus [13] = test: Anti-inflammatory activity in Wistar Rattus norvegicus (rat) assessed as inhibition of carrageenan-induced paw edema at 150 mg/kg, po administered 30 min prior to carrageenan challenge measured at 180 min relative to untreated control; format: functional
Rattus norvegicus [14] = test: Anti-inflammatory activity in Wistar Rattus norvegicus (rat) assessed as inhibition of carrageenan-induced paw edema at 100 mg/kg, po administered 30 min prior to carrageenan challenge measured at 180 min relative to untreated control; format: functional
Rattus norvegicus [15] = test: Anti-inflammatory activity in Wistar Rattus norvegicus (rat) assessed as inhibition of carrageenan-induced paw edema at 150 mg/kg, po administered 30 min prior to carrageenan challenge measured at 120 min relative to untreated control; format: functional
[16] = Antioxidant activity assessed as Fe2+ chelating activity at 1.5 mg/ml after 60 min by spectrophotometric analysis; format: functional
Rattus norvegicus [17] = test: Effect on LDH level in Wistar Rattus norvegicus (rat) serum at 50 mg/kg, po qd after 10 days (reference value: 249.89 +/- 13.26 U/I); format: functional
Rattus norvegicus [18] = test: Effect on gamma-glutamyl transferase level in Wistar Rattus norvegicus (rat) serum at 150 mg/kg, po qd after 10 days (reference value: 0.57 +/- 0.04 U/I); format: functional
Rattus norvegicus [19] = test: Effect on gamma-glutamyl transferase level in Wistar Rattus norvegicus (rat) serum at 50 mg/kg, po qd after 10 days (reference value: 0.57 +/- 0.04 U/I); format: functional
Rattus norvegicus [20] = test: Effect on ALP level in Wistar Rattus norvegicus (rat) serum at 100 mg/kg, po qd after 10 days (reference value: 39.5 +/- 3.86 U/I); format: functional
Rattus norvegicus [21] = test: Effect on ALP level in Wistar Rattus norvegicus (rat) serum at 50 mg/kg, po qd after 10 days (reference value: 39.5 +/- 3.86 U/I); format: functional
Rattus norvegicus [22] = test: Effect on SGOT level in Wistar Rattus norvegicus (rat) at 150 mg/kg, po qd after 10 days (reference value: 145.50 +/- 13.86 U/I); format: functional
Rattus norvegicus [23] = test: Effect on SGOT level in Wistar Rattus norvegicus (rat) at 50 mg/kg, po qd after 10 days (reference value: 145.50 +/- 13.86 U/I); format: functional
Rattus norvegicus [24] = test: Effect on glutathione reductase level in Wistar Rattus norvegicus (rat) liver measured NADPH oxidized per min per mg of protein at 100 mg/kg, po after 10 days (reference value: 4.19 +/ 0.42 nmol); format: functional
Rattus norvegicus [25] = test: Effect on glutathione reductase level in Wistar Rattus norvegicus (rat) liver measured NADPH oxidized per min per mg of protein at 50 mg/kg, po after 10 days (reference value: 4.19 +/ 0.42 nmol); format: functional
Rattus norvegicus [26] = test: Effect on glutathione peroxidase level in Wistar Rattus norvegicus (rat) liver measured GSH oxidized per min per mg of protein at 100 mg/kg, po after 10 days (reference value: 47.47 +/- 3.86 mmol); format: functional
[27] = Toxicity in ip dosed albino Mus musculus (mouse) assessed as mortality measured within 24 hr; format: organism-based; conditions: in vivo
Rattus norvegicus [28] = test: Effect on GSH level in Wistar Rattus norvegicus (rat) liver measured per mg of protein at 150 mg/kg, po after 10 days (reference value: 1.84 +/- 0.092 mg); format: functional
Rattus norvegicus [29] = test: Effect on TBARS level in Wistar Rattus norvegicus (rat) serum at 100 mg/kg, po qd after 10 days (reference value: 0.82 +/- 0.073 nmol/ml); format: functional
Rattus norvegicus [30] = test: Effect on TBARS level in Wistar Rattus norvegicus (rat) serum at 150 mg/kg, po qd after 10 days (reference value: 0.82 +/- 0.073 nmol/ml); format: functional
Rattus norvegicus [31] = test: Effect on TBARS level in Wistar Rattus norvegicus (rat) serum at 50 mg/kg, po qd after 10 days (reference value: 0.82 +/- 0.073 nmol/ml); format: functional
Rattus norvegicus [32] = test: Effect on LDH level in Wistar Rattus norvegicus (rat) serum at 100 mg/kg, po qd after 10 days (reference value: 249.89 +/- 13.26 U/I); format: functional

SMILES | T (Rattus norvegicus [1]) [°C] | T (Rattus norvegicus [2]) [°C] | T (Rattus norvegicus [3]) [°C] | T (Rattus norvegicus [4]) [°C] | inhibition in vivo at 150 mg/kg (Rattus norvegicus [5]) [%] | inhibition in vivo at 150 mg/kg (Rattus norvegicus [6]) [%] | inhibition in vivo at 50 mg/kg (Rattus norvegicus [7]) [%] | inhibition in vivo at 150 mg/kg (Rattus norvegicus [8]) [%] | inhibition in vivo at 50 mg/kg (Rattus norvegicus [9]) [%] | T (Rattus norvegicus [10]) [°C] | T (Rattus norvegicus [11]) [°C] | T (Rattus norvegicus [12]) [°C] | inhibition in vivo at 150 mg/kg (Rattus norvegicus [13]) [%] | inhibition in vivo at 100 mg/kg (Rattus norvegicus [14]) [%] | inhibition in vivo at 150 mg/kg (Rattus norvegicus [15]) [%] | Activity [16] [%] | Activity (Rattus norvegicus [17]) [U/L] | Activity (Rattus norvegicus [18]) [U/L] | Activity (Rattus norvegicus [19]) [U/L] | Activity (Rattus norvegicus [20]) [U/L] | other results
O=c1c2ccccc2nc2n1NC(c1ccc(O)c(O)c1)C2 (centres undefined) | 36.1 | 36 | 36.6 | 36.8 | 44.2 | 34.2 | 28.1 | 8.48 | 1.28 | 36.5 | 37.5 | 37.8 | 54.6 | 48.3 | 58.2 | 22 | 246.29 | 0.5 | 0.55 | 35.64 | Activity (Rattus norvegicus [21]): 40.77 U/L; Activity (Rattus norvegicus [22]): 134.55 U/L; Activity (Rattus norvegicus [23]): 139.53 U/L; Activity (Rattus norvegicus [24]): 4.25 nmol; Activity (Rattus norvegicus [25]): 4.33 nmol; Activity (Rattus norvegicus [26]): 51.38 mmol; LD50 at 24 h [27]: 495 mg/kg; Activity (Rattus norvegicus [28]): 2.39 mg; Activity (Rattus norvegicus [29]): 0.83 nmol/mL; Activity (Rattus norvegicus [30]): 0.8 nmol/mL; Activity (Rattus norvegicus [31]): 0.82 nmol/mL; Activity (Rattus norvegicus [32]): 243.46 U/L
COC(=O)c1ccccc1NC(=O)/C=C/c1ccc(O)c(O)c1 | 36.8 | 36.7 | 36.5 | 36.8 | 62.6 | 52.7 | 41.6 | 37.9 | 24.7 | 37 | 36.9 | 37.2 | 78.9 | 70.7 | 76 | 30 | 240.38 | 0.49 | 0.53 | 35.64 | Activity (Rattus norvegicus [21]): 38.3 U/L; Activity (Rattus norvegicus [22]): 129.32 U/L; Activity (Rattus norvegicus [23]): 135.62 U/L; Activity (Rattus norvegicus [24]): 5.59 nmol; Activity (Rattus norvegicus [25]): 4.85 nmol; Activity (Rattus norvegicus [26]): 53.74 mmol; LD50 at 24 h [27]: 1140 mg/kg; Activity (Rattus norvegicus [28]): 2.95 mg; Activity (Rattus norvegicus [29]): 0.75 nmol/mL; Activity (Rattus norvegicus [30]): 0.7 nmol/mL; Activity (Rattus norvegicus [31]): 0.77 nmol/mL; Activity (Rattus norvegicus [32]): 239.19 U/L
